Patent EP0247482A2, “Hardened reagent coatings, and processes for the preparation thereof” (priority 1986, dated 1987)

test system: casein; conditions: pH 7
Protocol: A 10 % strength casein solution is prepared in water by adding sodium hydroxide solution. 0.1 g of tartrazine is added to 100 ml of solution as filter dyestuff. Before pouring, various samples of the solution of 3 % by weight of each of the compounds 22, 19, 20, 21, 24, 25, 30, 31, 37, 41, 44, 45, 50, 52, 53, 55 and 56, dissolved in water, are added at a pH of 7.

Row | SMILES | hardened filter foils, solubility in alkaline water after drying
1 | Cc1ccc(N(C)C(=O)[n+]2ccc(CCS(=O)(=O)[O-])cc2)cc1 [Compound 52] | no longer dissolve in alkaline water
2 | O=C(N1CCCCC1)[n+]1ccc(CCS(=O)(=O)[O-])cc1 [Compound 53] | no longer dissolve in alkaline water
3 | O=C(N1CCOCC1)[n+]1cccc(S(=O)(=O)[O-])c1 [Compound 45] | no longer dissolve in alkaline water
4 | CCN(CC)C(=O)[n+]1ccc(CCS(=O)(=O)[O-])cc1 [Compound 50] | no longer dissolve in alkaline water
5 | NC(=O)c1ccc[n+](C(=O)N2CCOCC2)c1 [Compound 19] | no longer dissolve in alkaline water
6 | O=C(N1CCOCC1)[n+]1ccc(CCS(=O)(=O)[O-])cc1 [Compound 55] | no longer dissolve in alkaline water
7 | O=C(N1CCOCC1)[n+]1cccc(CCS(=O)(=O)[O-])c1 [Compound 56] | no longer dissolve in alkaline water
